Test results: patent US8148391B2 (Cephalon, Inc., priority 2006, dated 2012)
Where two headings read alike, the source gives them in different places. One block for each compound: values may come before it.

Legend:
[1] = target: T1, baculovirus-expressed ALK (Homo sapiens, UniProt Q9UM73); experiment: ALK Kinase Assay (ELISA-type, time-resolved fluorescence); type: biochemical
T1 construct: host or cells: baculovirus expression system
Method in brief: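 Plates coated with phospholipase C-γ substrate (10 μg/mL in TBS); reaction started with 30 ng/ml ALK and run 15 min at 37° C. Phosphorylated substrate detected with Eu-N1-labeled PT66 antibody. IC50 from sigmoidal variable-slope fit of percent inhibition vs log concentration.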

[2] = target: T2, c-Met (cytoplasmic domain) (Homo sapiens, UniProt P08581); experiment: c-Met Kinase Assay (same methods as for ALK, with modifications); type: biochemical
T2 construct: 10 ng/mL c-Met (cytoplasmic domain, Invitrogen Corporation #PV3143); purchased Invitrogen Corporation PV3143
T2 sequence (P08581 956-1390 limits assumed): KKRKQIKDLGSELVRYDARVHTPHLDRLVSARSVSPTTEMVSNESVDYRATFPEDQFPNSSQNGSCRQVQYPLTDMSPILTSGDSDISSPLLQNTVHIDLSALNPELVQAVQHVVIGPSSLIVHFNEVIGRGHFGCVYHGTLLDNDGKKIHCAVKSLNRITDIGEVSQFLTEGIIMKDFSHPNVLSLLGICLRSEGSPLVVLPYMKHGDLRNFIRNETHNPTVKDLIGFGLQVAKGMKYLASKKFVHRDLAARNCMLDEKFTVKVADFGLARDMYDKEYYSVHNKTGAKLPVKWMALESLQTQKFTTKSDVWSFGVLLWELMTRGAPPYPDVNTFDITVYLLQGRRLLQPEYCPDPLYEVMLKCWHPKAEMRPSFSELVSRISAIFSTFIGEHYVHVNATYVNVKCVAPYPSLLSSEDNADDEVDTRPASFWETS
Method in brief: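 Europium-labeled PT66 antibody (Eu-N1) detects substrate phosphorylation on wells coated with phospholipase C-γ at 10 μg/mL. The kinase, the cytoplasmic domain of c-Met at 10 ng/mL, starts the reaction, which proceeds 15 minutes at 37° C.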

[3] = ALK kinase inhibition, 1 μM ATP (Km level), read-out: ALK Activity
[4] = c-Met kinase inhibition, 1 μM ATP (Km level), read-out: cMet Activity
[5] = 1 μM ATP (Km level), read-out: ALK Activity (ALK Kinase Inhibition, IC50)
[6] = 1 μM ATP (Km level), read-out: cMet Activity (c-Met Kinase Inhibition, IC50)
[7] = 1 μM ATP (Km level), 30 ng/ml ALK, 37° C., 15 minutes, read-out: ALK Activity (ALK kinase inhibition, IC50 class)
[8] = 1 μM ATP (Km level), 10 ng/mL c-Met, read-out: cMet Activity (c-Met kinase inhibition, IC50 class)

T1 sequence (Q9UM73 19-1620): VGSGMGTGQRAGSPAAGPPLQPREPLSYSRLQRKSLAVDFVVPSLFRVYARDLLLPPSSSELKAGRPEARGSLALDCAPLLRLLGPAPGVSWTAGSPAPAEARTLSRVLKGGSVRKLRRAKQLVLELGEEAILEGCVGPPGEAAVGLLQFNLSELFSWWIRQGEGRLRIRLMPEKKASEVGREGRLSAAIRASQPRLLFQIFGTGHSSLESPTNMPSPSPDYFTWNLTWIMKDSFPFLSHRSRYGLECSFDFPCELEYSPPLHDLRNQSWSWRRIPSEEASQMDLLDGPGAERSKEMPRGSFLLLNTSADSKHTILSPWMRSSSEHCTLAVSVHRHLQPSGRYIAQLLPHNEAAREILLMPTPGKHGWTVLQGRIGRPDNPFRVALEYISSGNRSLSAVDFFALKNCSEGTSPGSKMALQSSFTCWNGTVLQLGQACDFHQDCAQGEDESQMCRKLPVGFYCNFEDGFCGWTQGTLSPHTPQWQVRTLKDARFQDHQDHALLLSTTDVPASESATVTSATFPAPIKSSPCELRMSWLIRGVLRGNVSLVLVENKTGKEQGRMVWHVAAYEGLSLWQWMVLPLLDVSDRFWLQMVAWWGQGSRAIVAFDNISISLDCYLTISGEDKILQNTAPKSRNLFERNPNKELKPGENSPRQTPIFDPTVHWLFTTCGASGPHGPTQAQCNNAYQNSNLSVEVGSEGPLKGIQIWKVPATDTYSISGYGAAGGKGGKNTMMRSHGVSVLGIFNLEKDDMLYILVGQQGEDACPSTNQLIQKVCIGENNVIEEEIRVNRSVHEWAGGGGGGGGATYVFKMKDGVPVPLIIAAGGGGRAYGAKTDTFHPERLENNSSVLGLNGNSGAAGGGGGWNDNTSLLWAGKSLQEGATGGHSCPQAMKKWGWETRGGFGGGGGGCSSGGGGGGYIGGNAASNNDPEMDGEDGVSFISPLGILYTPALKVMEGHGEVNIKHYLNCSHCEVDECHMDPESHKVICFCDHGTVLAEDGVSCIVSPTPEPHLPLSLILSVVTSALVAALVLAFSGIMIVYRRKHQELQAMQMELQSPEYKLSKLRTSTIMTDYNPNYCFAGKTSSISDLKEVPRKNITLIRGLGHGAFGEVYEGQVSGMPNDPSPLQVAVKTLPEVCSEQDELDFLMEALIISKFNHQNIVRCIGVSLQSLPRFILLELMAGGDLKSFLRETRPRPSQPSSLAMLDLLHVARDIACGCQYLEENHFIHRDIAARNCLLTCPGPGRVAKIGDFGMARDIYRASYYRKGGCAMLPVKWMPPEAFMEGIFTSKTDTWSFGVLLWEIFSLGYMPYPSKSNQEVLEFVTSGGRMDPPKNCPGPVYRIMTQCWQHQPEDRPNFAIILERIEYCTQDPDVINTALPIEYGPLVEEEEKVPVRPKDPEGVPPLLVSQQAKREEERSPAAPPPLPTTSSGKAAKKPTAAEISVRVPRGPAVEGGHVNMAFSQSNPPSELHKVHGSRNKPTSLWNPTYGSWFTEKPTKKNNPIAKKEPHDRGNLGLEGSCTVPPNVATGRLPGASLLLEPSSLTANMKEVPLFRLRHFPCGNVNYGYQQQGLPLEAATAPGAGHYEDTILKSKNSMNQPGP

SMILES: COc1c(Nc2ncc(Cl)c(Nc3ccccc3S(=O)(=O)C(C)C)n2)ccc2c1CCC(N1CCOCC1)CC2 (stereo not drawn) [Example 883, 5-Chloro-N*2*-(1-methoxy-7-morpholin-4-yl-6,7,8,9-tetrahydro-5H-benzocyclohepten-2-yl)-N*4*-[2-(propane-2-sulfonyl)-phenyl]-pyrimidine-2,4-diamine]
IC50 [1, 5]: < 0.1 µM
IC50 [2, 6]: 1 to 10 µM

SMILES: COc1cc2c(cc1Nc1ncc(Cl)c(Nc3ccc(N4CCOCC4)cc3OC)n1)CCN(CC(C)(F)F)CC2 [Example 780, 5-Chloro-N*2*-[3-(2,2-difluoro-propyl)-8-methoxy-2,3,4,5-tetrahydro-1H-benzo[d]azepin-7-yl]-N*4*-(2-methoxy-4-morpholin-4-yl-phenyl)-pyrimidine-2,4-diamine]
IC50 [1, 5]: 0.1 to 1 µM
IC50 [2, 6]: > 10 µM

SMILES: COCCN(C)C1CCc2ccc(Nc3ncc(Cl)c(N[C@H]4[C@@H](C(N)=O)[C@@H]5C=C[C@H]4C5)n3)c(OC)c2CC1 (single isomer, unassigned) [Example 700]
IC50 [1, 5]: < 0.1 µM
IC50 [2, 6]: > 10 µM

SMILES: CNC(=O)CN1CCc2ccc(Nc3ncc(Cl)c(Nc4ccc(N5CCOCC5)cc4OC)n3)cc2CC1 [Example 1127, 2-{7-[5-Chloro-4-(2-methoxy-4-morpholin-4-yl-phenylamino)-pyrimidin-2-ylamino]-1,2,4,5-tetrahydro-benzo[d]azepin-3-yl}-N-methyl-acetamide]
IC50 [1, 7]: < 0.1 µM
IC50 [2, 8]: 1 to 10 µM

SMILES: COc1cc2c(cc1Nc1ncc(Cl)c(Nc3ccccc3S(=O)(=O)C(C)C)n1)CCC(NCC(F)F)CC2 (stereo not drawn) [Example 1056, 5-Chloro-N*2*-[7-(2,2-difluoro-ethylamino)-3-methoxy-6,7,8,9-tetrahydro-5H-benzocyclohepten-2-yl]-N*4*-[2-(propane-2-sulfonyl)-phenyl]-pyrimidine-2,4-diamine]
IC50 [1, 7]: < 0.1 µM
IC50 [2, 8]: 1 to 10 µM

SMILES: COc1cc(N2CCOCC2)ccc1Nc1nc(Nc2ccc3c(c2OC)CCCC(N2CCOCC2)C3)ncc1Cl (stereo not drawn) [Example 952, 5-Chloro-N(4)-(2-methoxy-4-morpholin-4-yl-phenyl)-N(2)-(1-methoxy-6-morpholin-4-yl-6,7,8,9-tetrahydro-5H-benzocyclohepten-2-yl)-pyrimidine-2,4-diamine]
IC50 [1, 5]: < 0.1 µM
IC50 [2, 6]: > 10 µM

SMILES: C#CCN1CCc2ccc(Nc3ncc(Cl)c(N[C@H]4[C@@H](C(N)=O)[C@@H]5C=C[C@H]4C5)n3)cc2CC1 (relative stereo) [Example 323, (2-exo, 3-exo)-3-[5-Chloro-2-(3-prop-2-ynyl-2,3,4,5-tetrahydro-1H-benzo[d]azepin-7-ylamino)-pyrimidin-4-ylamino]-bicyclo[2.2.1]hept-5-ene-2-carboxylic acid amide]
IC50 [1, 3]: < 0.1 µM
IC50 [2, 4]: 0.1 to 1 µM

Other lines, results leading:

IC50 [1, 3]: < 0.1 µM
IC50 [2, 4]: 0.1 to 1 µM
SMILES: COCCN1CCc2ccc(Nc3ncc(Cl)c(Nc4ccccc4-n4cccn4)n3)cc2CC1 [Example 316, 5-Chloro-N*2*-[3-(2-methoxy-ethyl)-2,3,4,5-tetrahydro-1H-benzo[d]azepin-7-yl]-N*4*-(2-pyrazol-1-yl-phenyl)-pyrimidine-2,4-diamine]

IC50 [1, 3]: < 0.1 µM
IC50 [2, 4]: 1 to 10 µM
SMILES: COCCN1CCc2ccc(Nc3ncc(Cl)c(Nc4ccccc4OC)n3)cc2CC1 [Example 145, 5-Chloro-N*2*-[3-(2-methoxy-ethyl)-2,3,4,5-tetrahydro-1H-benzo[d]azepin-7-yl]-N*4*-(2-methoxy-phenyl)-pyrimidine-2,4-diamine]

IC50 [1, 3]: < 0.1 µM
IC50 [2, 4]: 0.1 to 1 µM
SMILES: Cn1ccnc1-c1ccccc1Nc1nc(Nc2ccc3c(c2)C(C)(C)CCC(=O)N3)ncc1Cl [Example 397, 7-{5-Chloro-4-[2-(1-methyl-1H-imidazol-2-yl)-phenylamino]-pyrimidin-2-ylamino}-5,5-dimethyl-1,3,4,5-tetrahydro-benzo[b]azepin-2-one]

IC50 [1, 5]: < 0.1 µM
IC50 [2, 6]: < 0.1 µM
SMILES: NC(=O)[C@@H]1[C@H](Nc2nc(Nc3ccc4c(c3)CCC(N3CCOCC3)CC4)ncc2Cl)[C@H]2C=C[C@@H]1C2 (stereo partly drawn) [Example 671, (1S,2S,3R,4R)-3-[5-Chloro-2-(7-morpholin-4-yl-6,7,8,9-tetrahydro-5H-benzocyclohepten-2-ylamino)-pyrimidin-4-ylamino]-bicyclo[2.2.1]hept-5-ene-2-carboxylic acid amide]

IC50 [1, 7]: < 0.1 µM
IC50 [2, 8]: < 0.1 µM
SMILES: CNC(=O)c1cc(-c2cnn(C)c2)cc(F)c1Nc1nc(Nc2ccc3c(c2)OCCCN3C(=O)OC)ncc1Cl [Example 1434, 3-{5-Chloro-4-[2-fluoro-6-methylcarbamoyl-4-(1-methyl-1H-pyrazol-4-yl)-phenylamino]-pyrimidin-2-ylamino}-7,8-dihydro-6H-5-oxa-9-aza-benzocycloheptene-9-carboxylic acid methyl ester]

IC50 [1, 5]: 0.1 to 1 µM
IC50 [2, 6]: > 10 µM
SMILES: CCN1CC(=O)N(C)c2cc(Nc3ncc(Cl)c(N[C@@H]4CCCC[C@H]4NS(C)(=O)=O)n3)c(OC)cc2C1 [Example 745, N-[(1R,2R)-2-[5-Chloro-2-(4-ethyl-7-methoxy-1-methyl-2-oxo-2,3,4,5-tetrahydro-1H-benzo[e][1,4]diazepin-8-ylamino)-pyrimidin-4-ylamino]-cyclohexyl}-methanesulfonamide]

IC50 [1, 5]: 0.1 to 1 µM
IC50 [2, 6]: 1 to 10 µM
SMILES: CS(=O)(=O)N[C@@H]1CCCC[C@H]1Nc1nc(Nc2ccc3c(c2)CNCCS3(=O)=O)ncc1Cl [Example 520, N-{(1R,2R)-2-[5-Chloro-2-(5,5-dioxo-6,7,8,9-tetrahydro-5H-5lambda*6*-thia-8-aza-benzoylcyclohepten-2-ylamino)-pyrimidin-4-ylamino]-cyclohexyl}-methanesulfonamide]

IC50 [1, 3]: 0.1 to 1 µM
IC50 [2, 4]: 1 to 10 µM
SMILES: CCN1CC2CC(C1)c1cc(Nc3ncc(Cl)c(NC4C5C=CC(C5)C4C(N)=O)n3)ccc12 (stereo not drawn) [Example 160, (2-exo,3-exo)-3-[5-Chloro-2-(10-ethyl-10-aza-tricyclo[6.3.1.0*2,7*]dodeca-2,4,6-trien-4-ylamino)-pyrimidin-4-ylamino]-bicyclo[2.2.1]hept-5-ene-2-carboxylic acid amide]

IC50 [1, 7]: < 0.1 µM
IC50 [2, 8]: < 0.1 µM
SMILES: CNS(=O)(=O)c1ccccc1Nc1nc(Nc2ccc3c(c2)CNC(=O)CCN3C(=O)C(F)(F)F)ncc1Cl [Example 1303, 2-{5-Chloro-2-[4-oxo-1-(2,2,2-trifluoro-acetyl)-1,2,3,4,5,6-hexahydro-benzo[b][1,5]diazocin-8-ylamino]-pyrimidin-4-ylamino}-N-methyl-benzenesulfonamide]

IC50 [1, 7]: < 0.1 µM
IC50 [2, 8]: > 10 µM
SMILES: COc1cc2c(cc1Nc1ncc(Cl)c(N[C@@H]3CCCC[C@H]3NS(C)(=O)=O)n1)CCN(CCS(C)(=O)=O)CC2 [Example 1122, N-((1R,2R)-2-{5-Chloro-2-[3-(2-methanesulfonyl-ethyl)-8-methoxy-2,3,4,5-tetrahydro-1H-benzo[d]azepin-7-ylamino]-pyrimidin-4-ylamino}-cyclohexyl)-methanesulfonamide]

IC50 ([1]; ALK kinase inhibition, 1 μM ATP, read-out: ALK Activity): < 0.1 µM
IC50 ([2]; c-Met kinase inhibition, 1 μM ATP, read-out: cMet Activity): 1 to 10 µM
SMILES: COc1cc2c(cc1Nc1ncc(Cl)c(Nc3ccccc3S(=O)(=O)N3CC[C@@H](O)C3)n1)CCN(CC(C)(C)O)CC2 [Example 1561, (R)-1-(2-{5-Chloro-2-[3-(2-hydroxy-2-methyl-propyl)-8-methoxy-2,3,4,5-tetrahydro-1H-3-benzazepin-7-ylamino]-pyrimidin-4-ylamino}-benzenesulfonyl)-pyrrolidin-3-ol]
